Source: patent US9695154B2, “Heteroaryl inhibitors of sumo activating enzyme” (MILLENNIUM PHARMACEUTICALS, INC., priority 2013, dated 2017)

Molecular target: T1, recombinant human SAE enzyme (Homo sapiens, UniProt Q9UBT2)
T1 sequence (Q9UBT2 1-640): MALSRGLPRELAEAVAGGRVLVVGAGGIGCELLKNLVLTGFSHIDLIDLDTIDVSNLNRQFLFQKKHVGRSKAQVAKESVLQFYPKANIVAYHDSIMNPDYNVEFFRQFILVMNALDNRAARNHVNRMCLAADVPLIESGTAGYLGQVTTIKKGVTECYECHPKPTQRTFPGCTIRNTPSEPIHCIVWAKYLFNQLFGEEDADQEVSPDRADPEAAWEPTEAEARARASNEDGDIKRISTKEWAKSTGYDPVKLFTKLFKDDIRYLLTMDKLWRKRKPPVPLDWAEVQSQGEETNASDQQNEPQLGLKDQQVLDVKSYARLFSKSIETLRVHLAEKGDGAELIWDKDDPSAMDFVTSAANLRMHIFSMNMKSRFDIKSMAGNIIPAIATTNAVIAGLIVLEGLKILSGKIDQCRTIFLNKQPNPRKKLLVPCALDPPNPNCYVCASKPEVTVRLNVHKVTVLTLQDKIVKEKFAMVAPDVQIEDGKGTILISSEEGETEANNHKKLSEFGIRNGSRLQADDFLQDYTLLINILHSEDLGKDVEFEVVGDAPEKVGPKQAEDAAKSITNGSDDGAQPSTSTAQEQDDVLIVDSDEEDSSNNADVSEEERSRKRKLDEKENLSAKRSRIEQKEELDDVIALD
T1 sequence (Q9UBE0 1-346 partner): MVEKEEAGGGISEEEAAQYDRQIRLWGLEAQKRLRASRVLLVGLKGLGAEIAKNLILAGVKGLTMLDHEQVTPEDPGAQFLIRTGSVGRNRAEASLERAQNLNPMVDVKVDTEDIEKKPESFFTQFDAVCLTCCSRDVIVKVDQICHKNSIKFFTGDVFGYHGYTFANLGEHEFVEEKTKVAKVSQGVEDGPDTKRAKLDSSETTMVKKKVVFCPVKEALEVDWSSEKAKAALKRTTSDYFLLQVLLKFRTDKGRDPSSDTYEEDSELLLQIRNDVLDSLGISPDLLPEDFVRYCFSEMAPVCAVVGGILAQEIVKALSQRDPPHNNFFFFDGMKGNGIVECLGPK
Test: SAE HTRF Enzyme Assay
Format: biochemical
Details: for IC50: class symbols A-C; for inhibition at 0.111 µM: compound concentration 0.111 μM, read-out: Percent Inhibition
Outline: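 Measured as FRET after a 2 h antibody step: SAE (0.11 nM) thioester transfer of Sumo-Flag to Ubc9-GST, 0.5 μM ATP, 24° C for 105 min, quenched with 20 mM EDTA. Output is IC50 or percent inhibition at a single concentration.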

Q: Which IC50 does the source give for NS(=O)(=O)OC[C@H]1C[C@@H](Nc2ncncc2C(=O)c2ccn(Cc3c(F)c(F)c(F)c(F)c3F)n2)[C@H](O)[C@@H]1O [Compound I-318, {(1R,2R,3S,4R)-2,3-dihydroxy-4-[(5-{[1-(pentafluorobenzyl)-1H-pyrazol-3-yl]carbonyl}pyrimidin-4-yl)amino]cyclopentyl}methyl sulfamate] here?
A: < 10 nM

Q: And the inhibition at 0.111 µM?
A: 95%

Q: How did the IC50 turn out when NS(=O)(=O)OC[C@H]1C[C@@H](Nc2ncncc2C(=O)c2ccn(Cc3ccc(Br)o3)c2)[C@@H](F)[C@@H]1O [Compound I-24, [(1R,2R,3R,4R)-4-{[5-({1-[(5-Bromo-2-furyl)methyl]-1H-pyrrol-3-yl}carbonyl)pyrimidin-4-yl]amino}-3-fluoro-2-hydroxycyclopentyl]methyl sulfamate] was run?
A: < 10 nM

Q: What about the inhibition at 0.111 µM of the same compound?
A: 100%

Q: With NS(=O)(=O)OC[C@H]1C[C@@H](Nc2ncncc2C(=O)c2ccn(Cc3cccc(I)c3)n2)C[C@@H]1O [Compound I-292, {(1R,2S,4R)-2-Hydroxy-4-[(5-{[1-(3-iodobenzyl)-1H-pyrazol-3-yl]carbonyl}pyrimidin-4-yl)amino]cyclopentyl}methyl sulfamate] as the compound, how does the IC50 read?
A: < 10 nM

Q: What about the inhibition at 0.111 µM of the same compound?
A: 98%

Q: NS(=O)(=O)OC[C@H]1C[C@@H](Nc2ncncc2C(=O)c2ccn(Cc3c(F)cc(F)cc3F)n2)[C@H](O)[C@@H]1O [Compound I-88, {(1R,2R,3S,4R)-2,3-dihydroxy-4-[(5-{[1-(2,4,6-trifluorobenzyl)-1H-pyrazol-3-yl]carbonyl}pyrimidin-4-yl)amino]cyclopentyl}methyl sulfamate] was tested. Which IC50 did it give?
A: < 10 nM

Q: What about the inhibition at 0.111 µM of the same compound?
A: > 99%

Q: How did the IC50 turn out when NS(=O)(=O)OC[C@H]1C[C@@H](Nc2ncncc2C(=O)c2ccn(Cc3ccc(F)c(Br)c3)c2)[C@@H](F)[C@@H]1O [Compound I-143, {(1R,2R,3R,4R)-4-[(5-{[1-(3-bromo-4-fluorobenzyl)-1H-pyrrol-3-yl]carbonyl}pyrimidin-4-yl)amino]-3-fluoro-2-hydroxycyclopentyl}methyl sulfamate] was run?
A: < 10 nM

Q: What about the inhibition at 0.111 µM of the same compound?
A: 99%

Q: Which results are given for NS(=O)(=O)OC[C@H]1C[C@@H](Nc2ncncc2C(=O)c2ccn(Cc3cc(C(F)(F)F)co3)c2)[C@@H](F)[C@@H]1O [Compound I-114, [(1R,2R,3R,4R)-3-fluoro-2-hydroxy-4-({5-[(1-{[4-(trifluoromethyl)-2-furyl]methyl}-1H-pyrrol-3-yl)carbonyl]pyrimidin-4-yl}amino)cyclopentyl]methyl sulfamate]?
A: IC50: < 10 nM; inhibition at 0.111 µM: 98%

Q: Which IC50 does the source give for NS(=O)(=O)OC[C@H]1C[C@@H](Nc2ncncc2C(=O)c2ccn(Cc3cc(C(F)(F)F)ccc3F)n2)[C@H](O)[C@@H]1O [Compound I-230, [(1R,2R,3S,4R)-4-{[5-({1-[2-fluoro-5-(trifluoromethyl)benzyl]-1H-pyrazol-3-yl}carbonyl)pyrimidin-4-yl]amino}-2,3-dihydroxycyclopentyl]methyl sulfamate] here?
A: < 10 nM

Q: And the inhibition at 0.111 µM?
A: 98%

Q: With NS(=O)(=O)OC[C@H]1C[C@@H](Nc2ncncc2C(=O)c2ccn(Cc3cncc(Br)c3)c2)C[C@@H]1O [Compound I-299, [(1R,2S,4R)-4-{[5-({1-[(5-Bromopyridin-3-yl)methyl]-1H-pyrrol-3-yl}carbonyl)pyrimidin-4-yl]amino}-2-hydroxycyclopentyl]methyl sulfamate] as the compound, how does the IC50 read?
A: < 10 nM

Q: What about the inhibition at 0.111 µM of the same compound?
A: 99%

Q: What does the source list for Cc1cc(Cn2ccc(C(=O)c3cncnc3N[C@@H]3C[C@H](COS(N)(=O)=O)[C@@H](O)[C@@H]3F)c2)no1 [Compound I-297, [(1R,2R,3R,4R)-3-fluoro-2-hydroxy-4-{[5-({1-[(5-methylisoxazol-3-yl)methyl]-1H-pyrrol-3-yl}carbonyl)pyrimidin-4-yl]amino}cyclopentyl]methyl sulfamate]?
A: IC50: < 10 nM; inhibition at 0.111 µM: 97%

Q: Which IC50 does the source give for NS(=O)(=O)OC[C@H]1C[C@@H](Nc2ncncc2C(=O)c2ccn(Cc3ccc(F)cc3)n2)C[C@@H]1O [Compound I-161, {(1R,2S,4R)-4-[(5-{[1-(4-fluorobenzyl)-1H-pyrazol-3-yl]carbonyl}pyrimidin-4-yl)amino]-2-hydroxycyclopentyl}methyl sulfamate] here?
A: < 10 nM

Q: What about the inhibition at 0.111 µM of the same compound?
A: 92%

Q: Which results are given for CC1(C)CCC(Cn2ccc(C(=O)c3cncnc3N[C@@H]3C[C@H](COS(N)(=O)=O)[C@@H](O)[C@@H]3F)c2)O1 (mixture of isomers) [Compound I-250, [(1R,2R,3R,4R)-4-({5-[(1-{[(2R)-5,5-dimethyltetrahydrofuran-2-yl]methyl}-1H-pyrrol-3-yl)carbonyl]pyrimidin-4-yl}amino)-3-fluoro-2-hydroxycyclopentyl]methyl sulfamate and [(1R,2R,3R,4R)-4-({5-[(1-{[(2S)-5,5-dimethyltetrahydrofuran-2-yl]methyl}-1H-pyrrol-3-yl)carbonyl]pyrimidin-4-yl}amino)-3-fluoro-2-hydroxycyclopentyl]methyl sulfamate]?
A: IC50: 10 to 100 nM; inhibition at 0.111 µM: 86%

Q: With NS(=O)(=O)OC[C@H]1C[C@@H](Nc2ncncc2C(=O)c2cc(Cl)n(Cc3cccc(Br)c3)c2Cl)[C@@H](F)[C@@H]1O [Compound I-105, {(1R,2R,3R,4R)-4-[(5-{[1-(3-bromobenzyl)-2,5-dichloro-1H-pyrrol-3-yl]carbonyl}pyrimidin-4-yl)amino]-3-fluoro-2-hydroxycyclopentyl}methyl sulfamate] as the compound, how does the IC50 read?
A: 100 to 1000 nM

Q: What about the inhibition at 0.111 µM of the same compound?
A: 18%

Q: How did the IC50 turn out when NS(=O)(=O)OC[C@H]1C[C@@H](Nc2ncncc2C(=O)c2ccn(Cc3cc(C(F)(F)F)cc(C(F)(F)F)c3)n2)[C@H](O)[C@@H]1O [Compound I-155, [(1R,2R,3S,4R)-4-{[5-({1-[3,5-bis(trifluoromethyl)benzyl]-1H-pyrazol-3-yl}carbonyl)pyrimidin-4-yl]amino}-2,3-dihydroxycyclopentyl]methyl sulfamate] was run?
A: < 10 nM

Q: What about the inhibition at 0.111 µM of the same compound?
A: 97%

Q: For NS(=O)(=O)OC[C@H]1C[C@@H](Nc2ncncc2C(=O)c2ccn(CC(=O)c3cccc(Br)c3)n2)[C@H](O)[C@@H]1O [Compound I-96, [(1R,2R,3S,4R)-4-{[5-({1-[2-(3-bromophenyl)-2-oxoethyl]-1H-pyrazol-3-yl}carbonyl)pyrimidin-4-yl]amino}-2,3-dihydroxycyclopentyl]methyl sulfamate], which IC50 is on record?
A: < 10 nM

Q: And the inhibition at 0.111 µM?
A: 98%

Q: Which IC50 does the source give for NS(=O)(=O)OC[C@H]1C[C@@H](Nc2ncncc2C(=O)c2cc(Br)n(Cc3cccc(Br)c3)c2)[C@@H](F)[C@@H]1O [Compound I-272, {(1R,2R,3R,4R)-4-[(5-{[5-bromo-1-(3-bromobenzyl)-1H-pyrrol-3-yl]carbonyl}pyrimidin-4-yl)amino]-3-fluoro-2-hydroxycyclopentyl}methyl sulfamate] here?
A: < 10 nM

Q: What about the inhibition at 0.111 µM of the same compound?
A: 99%

Q: NS(=O)(=O)OC[C@H]1C[C@@H](Nc2ncncc2C(=O)c2ccn(Cc3sc4ccccc4c3Cl)c2)[C@@H](F)[C@@H]1O [Compound I-49, [(1R,2R,3R,4R)-4-{[5-({1-[(3-chloro-1-benzothiophen-2-yl)methyl]-1H-pyrrol-3-yl}carbonyl)pyrimidin-4-yl]amino}-3-fluoro-2-hydroxycyclopentyl]methyl sulfamate] was tested. Which IC50 did it give?
A: < 10 nM

Q: What about the inhibition at 0.111 µM of the same compound?
A: 93%

Q: Which IC50 does the source give for NS(=O)(=O)OC[C@H]1C[C@@H](Nc2ncncc2C(=O)c2ccn(CC3CCOC3)n2)C[C@@H]1O (mixture of isomers) [Compound I-332, [(1R,2S,4R)-2-hydroxy-4-{[5-({1-[(3R)-tetrahydrofuran-3-ylmethyl]-1H-pyrazol-3-yl}carbonyl)pyrimidin-4-yl]amino}cyclopentyl]methyl sulfamate and [(1R,2S,4R)-2-hydroxy-4-{[5-({1-[(3S)-tetrahydrofuran-3-ylmethyl]-1H-pyrazol-3-yl}carbonyl)pyrimidin-4-yl]amino}cyclopentyl]methyl sulfamate] here?
A: 100 to 1000 nM

Q: What about the inhibition at 0.111 µM of the same compound?
A: 16%

Q: What does the source list for NS(=O)(=O)OC[C@H]1C[C@@H](Nc2ncncc2C(=O)c2ccn(Cc3ccc(Cl)o3)c2)[C@@H](F)[C@@H]1O [Compound I-296, [(1R,2R,3R,4R)-4-{[5-({1-[(5-chloro-2-furyl)methyl]-1H-pyrrol-3-yl}carbonyl)pyrimidin-4-yl]amino}-3-fluoro-2-hydroxycyclopentyl]methyl sulfamate]?
A: IC50: < 10 nM; inhibition at 0.111 µM: 100%
